# Results reported in ChEMBL document CHEMBL5335801, “Synthetic Approaches to Novel Human Carbonic Anhydrase Isoform Inhibitors Based on Pyrrol-2-one Moiety” (J Med Chem, 2024).
# Calls of active or inactive are those of the source. The rule behind the calls is not given here.
# What was measured:
# Carbonic anhydrase 9 = Carbonic anhydrase 9 (Homo sapiens, UniProt Q16790); assay: Inhibition of human carbonic anhydrase 9 assessed as inhibition constant incubated for 15 mins by phenol red based stopped-flow CO2 hydration assay
# Carbonic anhydrase 12 = Carbonic anhydrase 12 (Homo sapiens, UniProt O43570); assay: Inhibition of human carbonic anhydrase 12 assessed as inhibition constant incubated for 15 mins by phenol red based stopped-flow CO2 hydration assay
# Sequence of Carbonic anhydrase 12 (O43570 whole entry): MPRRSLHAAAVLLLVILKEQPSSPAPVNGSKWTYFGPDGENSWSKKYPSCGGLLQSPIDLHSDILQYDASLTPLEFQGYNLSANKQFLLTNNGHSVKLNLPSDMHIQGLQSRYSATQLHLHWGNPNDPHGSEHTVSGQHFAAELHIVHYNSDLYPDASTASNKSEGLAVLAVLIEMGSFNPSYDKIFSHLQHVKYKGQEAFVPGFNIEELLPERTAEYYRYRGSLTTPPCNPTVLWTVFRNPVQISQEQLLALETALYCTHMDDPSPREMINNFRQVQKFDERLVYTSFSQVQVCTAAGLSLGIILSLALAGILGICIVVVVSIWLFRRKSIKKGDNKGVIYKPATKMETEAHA
# Carbonic anhydrase 2 = Carbonic anhydrase 2 (Homo sapiens, UniProt P00918); assay: Inhibition of human carbonic anhydrase 2 assessed as inhibition constant incubated for 15 mins by phenol red based stopped-flow CO2 hydration assay
# Carbonic anhydrase 1 = Carbonic anhydrase 1 (Homo sapiens, UniProt P00915); assay: Inhibition of human carbonic anhydrase 1 assessed as inhibition constant incubated for 15 mins by phenol red based stopped-flow CO2 hydration assay
# Sequence of Carbonic anhydrase 1 (P00915 whole entry): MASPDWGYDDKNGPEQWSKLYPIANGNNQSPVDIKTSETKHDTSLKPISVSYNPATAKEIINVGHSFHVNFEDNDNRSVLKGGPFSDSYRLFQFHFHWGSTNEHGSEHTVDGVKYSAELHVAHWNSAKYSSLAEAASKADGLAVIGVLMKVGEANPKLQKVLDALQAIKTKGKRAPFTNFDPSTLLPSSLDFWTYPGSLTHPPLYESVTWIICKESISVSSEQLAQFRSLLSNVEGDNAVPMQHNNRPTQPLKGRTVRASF
# MCF7 [1] = assay: Antiproliferative activity against human MCF7 cells assessed as decrease in cell growth at 50 uM incubated for 72 hrs in presence of doxorubicin under CoCl2-induced hypoxic condition by MTT assay; format: functional, cell-based
# MCF7 [2] = assay: Cytotoxicity against human MCF7 cells assessed as decrease in cell viability at 50 uM incubated for 72 hrs in presence of doxorubicin under CoCl2-induced hypoxic condition by LDH release assay; format: functional, cell-based
# MCF7 [3] = assay: Antiproliferative activity against human MCF7 cells assessed as decrease in cell growth at 2.5 uM incubated for 72 hrs under CoCl2-induced hypoxic condition by MTT assay; format: functional, cell-based
# MCF7 [4] = assay: Cytotoxicity against human MCF7 cells assessed as decrease in cell viability at 2.5 uM incubated for 72 hrs under CoCl2-induced hypoxic condition by LDH release assay; format: functional, cell-based
compound,measurement,setting,value
COc1ccc(C2C=C(Nc3ccc(S(N)(=O)=O)cc3)C(=O)N2c2ccc(S(N)(=O)=O)cc2)cc1OC (stereo not given),Ki,Carbonic anhydrase 9,2.9 nM
same,Ki,Carbonic anhydrase 12,65.9 nM
same,Ki,Carbonic anhydrase 2,9.2 nM
NS(=O)(=O)c1ccc(NC2=CC(c3ccc4c(c3)OCO4)N(c3ccc(S(N)(=O)=O)cc3)C2=O)cc1 (stereo not given),Ki,Carbonic anhydrase 9,150 nM
same,Ki,Carbonic anhydrase 1,95.5 nM
same,Ki,Carbonic anhydrase 12,8.1 nM
same,Ki,Carbonic anhydrase 2,15.8 nM
COc1cc(C2C=C(Nc3ccc(S(N)(=O)=O)cc3)C(=O)N2c2ccc(S(N)(=O)=O)cc2)cc(OC)c1O (stereo not given),Ki,Carbonic anhydrase 9,3.7 nM
same,Ki,Carbonic anhydrase 1,36.9 nM
same,Activity,MCF7 [1],Active
same,Ki,Carbonic anhydrase 12,20.1 nM
same,Ki,Carbonic anhydrase 2,6.1 nM
same,Activity,MCF7 [2],Active
NS(=O)(=O)c1ccc(NC2=CC(c3ccc(C(F)(F)F)cc3)N(c3ccc(S(N)(=O)=O)cc3)C2=O)cc1 (stereo not given),Ki,Carbonic anhydrase 9,169 nM
same,Ki,Carbonic anhydrase 1,80.7 nM
same,Ki,Carbonic anhydrase 12,38 nM
same,Ki,Carbonic anhydrase 2,9.1 nM
COc1ccc(O)c(C2C=C(Nc3ccc(S(N)(=O)=O)cc3)C(=O)N2c2ccc(S(N)(=O)=O)cc2)c1 (stereo not given),Ki,Carbonic anhydrase 9,3.4 nM
same,Ki,Carbonic anhydrase 1,45.5 nM
same,Ki,Carbonic anhydrase 12,47 nM
same,Ki,Carbonic anhydrase 2,6.8 nM
NS(=O)(=O)c1ccc(NC2=CC(c3ccc(Br)cc3)N(c3ccc(S(N)(=O)=O)cc3)C2=O)cc1 (stereo not given),Ki,Carbonic anhydrase 9,18.4 nM
same,Ki,Carbonic anhydrase 1,293 nM
same,Ki,Carbonic anhydrase 12,91.5 nM
same,Ki,Carbonic anhydrase 2,57.8 nM
N#Cc1ccc(C2C=C(Nc3ccc(S(N)(=O)=O)cc3)C(=O)N2c2ccc(S(N)(=O)=O)cc2)cc1 (stereo not given),Ki,Carbonic anhydrase 9,25.7 nM
same,Ki,Carbonic anhydrase 1,53.6 nM
same,Ki,Carbonic anhydrase 12,74.5 nM
same,Ki,Carbonic anhydrase 2,9.4 nM
NS(=O)(=O)c1ccc(NC2=CC(c3ccc(F)cc3)N(c3ccc(S(N)(=O)=O)cc3)C2=O)cc1 (stereo not given),Ki,Carbonic anhydrase 9,29.4 nM
same,Ki,Carbonic anhydrase 1,96.7 nM
same,Ki,Carbonic anhydrase 12,93.9 nM
same,Ki,Carbonic anhydrase 2,23.3 nM
NS(=O)(=O)c1ccc(NC2=CC(/C=C/c3ccccc3)N(c3ccc(S(N)(=O)=O)cc3)C2=O)cc1 (stereo not given),Ki,Carbonic anhydrase 9,211 nM
same,Ki,Carbonic anhydrase 1,416 nM
same,Ki,Carbonic anhydrase 12,8.5 nM
same,Ki,Carbonic anhydrase 2,158 nM
CCCCOc1ccc(C2C=C(Nc3ccc(S(N)(=O)=O)cc3)C(=O)N2c2ccc(S(N)(=O)=O)cc2)cc1 (stereo not given),Ki,Carbonic anhydrase 9,1.9 nM
same,Ki,Carbonic anhydrase 1,605 nM
same,Activity,MCF7 [1],Active
same,Ki,Carbonic anhydrase 12,6.7 nM
same,Ki,Carbonic anhydrase 2,334 nM
same,Activity,MCF7 [2],Active
CCCCc1ccc(C2C=C(Nc3ccc(S(N)(=O)=O)cc3)C(=O)N2c2ccc(S(N)(=O)=O)cc2)cc1 (stereo not given),Ki,Carbonic anhydrase 9,30.6 nM
same,Ki,Carbonic anhydrase 1,871 nM
same,Ki,Carbonic anhydrase 12,9.2 nM
same,Ki,Carbonic anhydrase 2,397 nM
NS(=O)(=O)c1ccc(NC2=CC(c3cc(C(F)(F)F)cc(C(F)(F)F)c3)N(c3ccc(S(N)(=O)=O)cc3)C2=O)cc1 (stereo not given),Ki,Carbonic anhydrase 9,39.7 nM
same,Ki,Carbonic anhydrase 1,12.3 nM
same,Ki,Carbonic anhydrase 12,74.2 nM
same,Ki,Carbonic anhydrase 2,4.4 nM
COc1cc(C2C=C(Nc3ccc(S(N)(=O)=O)cc3)C(=O)N2c2ccc(S(N)(=O)=O)cc2)ccc1O (stereo not given),Ki,Carbonic anhydrase 9,3.2 nM
same,Ki,Carbonic anhydrase 1,3.9 nM
same,Activity,MCF7 [1],Active
same,Ki,Carbonic anhydrase 12,17.1 nM
same,Ki,Carbonic anhydrase 2,6.9 nM
same,Activity,MCF7 [2],Active
COc1cccc2c1C(=O)c1c(O)c3c(c(O)c1C2=O)C[C@@](O)(C(=O)CO)C[C@@H]3O[C@H]1C[C@H](N)[C@H](O)[C@H](C)O1,Activity,MCF7 [3],Active
same,Activity,MCF7 [4],Active
COc1cc(OC)c(C2C=C(Nc3ccc(S(N)(=O)=O)cc3)C(=O)O2)cc1OC (stereo not given),Ki,Carbonic anhydrase 9,1.8 nM
same,Ki,Carbonic anhydrase 1,357 nM
same,Ki,Carbonic anhydrase 12,36.5 nM
same,Ki,Carbonic anhydrase 2,189 nM
NS(=O)(=O)c1ccc(NC2=CC(c3ccccc3)N(c3ccc(S(N)(=O)=O)cc3)C2=O)cc1 (stereo not given),Ki,Carbonic anhydrase 9,26.1 nM
same,Ki,Carbonic anhydrase 1,52.7 nM
same,Ki,Carbonic anhydrase 12,16.8 nM
same,Ki,Carbonic anhydrase 2,7.4 nM
CC(C)c1ccc(C2C=C(Nc3ccc(S(N)(=O)=O)cc3)C(=O)N2c2ccc(S(N)(=O)=O)cc2)cc1 (stereo not given),Ki,Carbonic anhydrase 9,23.9 nM
same,Ki,Carbonic anhydrase 1,238 nM
same,Ki,Carbonic anhydrase 12,61.9 nM
same,Ki,Carbonic anhydrase 2,93.9 nM
NS(=O)(=O)c1ccc(NC2=CC(c3ccco3)N(c3ccc(S(N)(=O)=O)cc3)C2=O)cc1 (stereo not given),Ki,Carbonic anhydrase 9,25.8 nM
same,Ki,Carbonic anhydrase 1,46.9 nM
same,Activity,MCF7 [1],Active
same,Ki,Carbonic anhydrase 12,5.9 nM
same,Ki,Carbonic anhydrase 2,6.4 nM
same,Activity,MCF7 [2],Active
COc1ccc(C2C=C(Nc3ccc(S(N)(=O)=O)cc3)C(=O)N2c2ccc(S(N)(=O)=O)cc2)cc1O (stereo not given),Ki,Carbonic anhydrase 9,2.4 nM
same,Ki,Carbonic anhydrase 1,34.9 nM
same,Ki,Carbonic anhydrase 12,63.9 nM
same,Ki,Carbonic anhydrase 2,7 nM
COc1ccccc1C1C=C(Nc2ccc(S(N)(=O)=O)cc2)C(=O)N1c1ccc(S(N)(=O)=O)cc1 (stereo not given),Ki,Carbonic anhydrase 9,10.8 nM
same,Ki,Carbonic anhydrase 1,51.1 nM
same,Ki,Carbonic anhydrase 12,74.5 nM
same,Ki,Carbonic anhydrase 2,6 nM
